Assay results published in patent US20160030426A1, “HETEROARYL COMPOUNDS AND USES THEREOF” (CELGENE AVILOMICS RESEARCH, INC., priority 2013, published 2016).
pIC50: −log10 of the molar value.

Target: T1, EGFR-WT (Homo sapiens, UniProt P00533)
T1 construct: purchased Invitrogen PV3872
Test: Omnia assay for potency assessment against EGFR-WT
Format: biochemical
Settings: 30 min pre-incubation at 27° C., read-out: EGFR Inhibition
Description: Omnia Assay Protocol for Potency Assessment Against BTK and EGFR
The mechanics of the assay platform are best described by the vendor (Invitrogen, Carlsbad, Calif.).
10× stocks of EGFR-WT (PV3872) from Invitrogen, 1.13×ATP (Invitrogen catalog number AS001A) and appropriate Tyr-Sox conjugated peptide substrates (Invitrogen catalog number KCZ1001) were prepared in 1× kinase reaction buffer consisting of 20 mM Tris, pH 7.5, 5 mM MgCl2, 1 mM EGTA, 5 mM β-glycerophosphate, 5% glycerol (10× stock, Invitrogen catalog number KB002A) and 0.2 mM DTT (Invitrogen catalog number DS001A). 5 μL of each enzyme were pre-incubated in a Corning (#3574) 384-well, white, non-binding surface microtiter plate (Corning, N.Y.) for 30 min. at 27° C. with a 0.5 μL volume of 50% DMSO and serially diluted compounds prepared in 50% DMSO. Kinase reactions were started with the addition of 45 μL of the ATP/Tyr-Sox peptide substrate mix and monitored every 30-90 seconds for 60 minutes at λex360/λem485 in a Synergy^4 plate reader from BioTek (Winooski, Vt.). […] Initial velocity (0 minutes to ˜30 minutes) from each reaction was determined from the slope of a plot of relative fluorescence units vs time (minutes) and then plotted against inhibitor concentration to estimate IC50 from log[Inhibitor] vs Response, Variable Slope model in GraphPad Prism from GraphPad Software (San Diego, Calif.).

T1 sequence (P00533 668-1210 limits assumed): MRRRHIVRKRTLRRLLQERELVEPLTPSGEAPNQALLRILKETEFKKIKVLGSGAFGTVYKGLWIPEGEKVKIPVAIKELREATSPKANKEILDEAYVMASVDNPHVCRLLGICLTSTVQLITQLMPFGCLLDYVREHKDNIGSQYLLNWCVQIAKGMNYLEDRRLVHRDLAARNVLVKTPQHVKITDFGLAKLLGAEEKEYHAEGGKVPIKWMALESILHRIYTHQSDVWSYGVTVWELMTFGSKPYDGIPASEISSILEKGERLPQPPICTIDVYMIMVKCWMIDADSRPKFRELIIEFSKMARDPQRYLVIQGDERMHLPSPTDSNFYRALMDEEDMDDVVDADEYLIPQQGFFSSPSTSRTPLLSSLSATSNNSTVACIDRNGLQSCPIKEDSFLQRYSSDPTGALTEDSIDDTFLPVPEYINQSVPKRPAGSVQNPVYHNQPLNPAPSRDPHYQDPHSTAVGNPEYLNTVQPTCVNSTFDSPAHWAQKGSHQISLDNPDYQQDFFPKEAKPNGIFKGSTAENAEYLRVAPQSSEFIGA

pIC50: 7.00 to 8.00
SMILES: [2H]C([2H])([2H])OC([2H])([2H])C([2H])([2H])Oc1ccc(Nc2ncc(F)c(Nc3cccc(NC(=O)C=C)c3)n2)cc1 [II-7]
